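1) Cells in 96-well plates. 2) Compound, 48 h, 5 concentrations. 3) Linear interpolation between surrounding doses. 4) Unreached endpoint = highest concentration. TGI marks complete inhibition of growth.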
How the values were obtained:
Test in all cases: NCI anticancer screen, dose series, 48 h
SNB-75 CNS = test system: SNB-75 CNS
NCI-H522 lung = test system: NCI-H522 lung
SF-295 CNS = test system: SF-295 CNS
NCI-H23 lung = test system: NCI-H23 lung
SN12C renal = test system: SN12C renal
KM12 colon = test system: KM12 colon
RXF 393 renal = test system: RXF 393 renal
SK-OV-3 ovarian = test system: SK-OV-3 ovarian
OVCAR-8 ovarian = test system: OVCAR-8 ovarian
ACHN renal = test system: ACHN renal
SK-MEL-5 melanoma = test system: SK-MEL-5 melanoma
786-0 renal = test system: 786-0 renal
KM20L2 colon = test system: KM20L2 colon
RPMI-8226 leukemia = test system: RPMI-8226 leukemia
SK-MEL-2 melanoma = test system: SK-MEL-2 melanoma
SNB-19 CNS = test system: SNB-19 CNS
HCC-2998 colon = test system: HCC-2998 colon
HOP-18 NSCLC = test system: HOP-18 NSCLC
SK-MEL-28 melanoma = test system: SK-MEL-28 melanoma
SR leukemia = test system: SR leukemia
HCT-15 colon = test system: HCT-15 colon
NCI-H460 lung = test system: NCI-H460 lung
MALME-3M melanoma = test system: MALME-3M melanoma
SW-620 colon = test system: SW-620 colon
UACC-62 melanoma = test system: UACC-62 melanoma
SF-539 CNS = test system: SF-539 CNS
M19-MEL melanoma = test system: M19-MEL melanoma
LXFL 529 NSCLC = test system: LXFL 529 NSCLC
OVCAR-3 ovarian = test system: OVCAR-3 ovarian
K-562 leukemia = test system: K-562 leukemia
SNB-78 CNS = test system: SNB-78 CNS
SF-268 CNS = test system: SF-268 CNS
OVCAR-4 ovarian = test system: OVCAR-4 ovarian
NCI-H226 lung = test system: NCI-H226 lung
CCRF-CEM leukemia = test system: CCRF-CEM leukemia
IGROV1 ovarian = test system: IGROV1 ovarian
MOLT-4 leukemia = test system: MOLT-4 leukemia
A549 NSCLC = test system: A549 NSCLC
HL-60(TB) leukemia = test system: HL-60(TB) leukemia
COLO 205 colon = test system: COLO 205 colon
HT29 colon = test system: HT29 colon
UO-31 renal = test system: UO-31 renal
HOP-62 NSCLC = test system: HOP-62 NSCLC
EKVX NSCLC = test system: EKVX NSCLC
U251 CNS = test system: U251 CNS
HCT-116 colon = test system: HCT-116 colon
DMS 114 small cell lung = test system: DMS 114 small cell lung
HOP-92 NSCLC = test system: HOP-92 NSCLC
UACC-257 melanoma = test system: UACC-257 melanoma
DLD-1 colon = test system: DLD-1 colon
DMS 273 small cell lung = test system: DMS 273 small cell lung
OVCAR-5 ovarian = test system: OVCAR-5 ovarian
M14 melanoma = test system: M14 melanoma

C=C[Si](C)(C)COC(=O)/C(C#N)=C/C=C/c1ccccc1
TGI (SNB-75 CNS): 94 µM
TGI (NCI-H522 lung): > 100 µM
TGI (SF-295 CNS): > 100 µM
TGI (NCI-H23 lung): > 100 µM
TGI (SN12C renal): > 100 µM
TGI (KM12 colon): > 100 µM
TGI (RXF 393 renal): > 100 µM
TGI (SK-OV-3 ovarian): > 100 µM
TGI (OVCAR-8 ovarian): > 100 µM
TGI (ACHN renal): > 100 µM
TGI (SK-MEL-5 melanoma): > 100 µM
TGI (786-0 renal): > 100 µM
TGI (KM20L2 colon): > 100 µM
TGI (RPMI-8226 leukemia): > 100 µM
TGI (SK-MEL-2 melanoma): > 100 µM
TGI (SNB-19 CNS): > 100 µM
TGI (HCC-2998 colon): > 100 µM
TGI (HOP-18 NSCLC): > 100 µM
TGI (SK-MEL-28 melanoma): > 100 µM
TGI (SR leukemia): 79.9 µM
TGI (HCT-15 colon): > 100 µM
TGI (NCI-H460 lung): > 100 µM
TGI (MALME-3M melanoma): > 100 µM
TGI (SW-620 colon): > 100 µM
TGI (UACC-62 melanoma): > 100 µM
TGI (SF-539 CNS): > 100 µM
TGI (M19-MEL melanoma): > 100 µM
TGI (LXFL 529 NSCLC): > 100 µM
TGI (OVCAR-3 ovarian): > 100 µM
TGI (K-562 leukemia): > 100 µM
TGI (SNB-78 CNS): > 100 µM
TGI (SF-268 CNS): > 100 µM
TGI (OVCAR-4 ovarian): > 100 µM
TGI (NCI-H226 lung): > 100 µM
TGI (CCRF-CEM leukemia): > 100 µM
TGI (IGROV1 ovarian): > 100 µM
TGI (MOLT-4 leukemia): > 100 µM
TGI (A549 NSCLC): > 100 µM
TGI (HL-60(TB) leukemia): > 100 µM
TGI (COLO 205 colon): > 100 µM
TGI (HT29 colon): > 100 µM
TGI (UO-31 renal): > 100 µM
TGI (HOP-62 NSCLC): > 100 µM
TGI (EKVX NSCLC): > 100 µM
TGI (U251 CNS): > 100 µM
TGI (HCT-116 colon): > 100 µM
TGI (DMS 114 small cell lung): > 100 µM
TGI (HOP-92 NSCLC): > 100 µM
TGI (UACC-257 melanoma): > 100 µM
TGI (DLD-1 colon): > 100 µM
TGI (DMS 273 small cell lung): > 100 µM
TGI (OVCAR-5 ovarian): > 100 µM
TGI (M14 melanoma): > 100 µM

From PubChem BioAssay (NCI)
